According to ChEMBL document CHEMBL1134009, “The discovery of a potent, intracellular, orally bioavailable, long duration inhibitor of human neutrophil elastase--GW311616A a development candidate” (Bioorg Med Chem Lett, 2001):

Tests used:
Cricetulus griseus [1] = assay: Percent inhibition of intraneutrophil elastase in hamster bronchoalveolar lavage 6 hours after oral administration at a dose of 2.2 mg/kg; assay type: organism-based; parameters: dose 2.2 mg/kg; details: Lung
Homo sapiens = organism: Homo sapiens; assay: Residual elastase activity was evaluated after incubation with human whole blood for 30 min; assay type: functional; details: 0.5 h
Neutrophil elastase = biological target: T1, Neutrophil elastase (Homo sapiens, UniProt P08246); assay: Inhibitory concentration against Elastase
T1 sequence (P08246 whole entry): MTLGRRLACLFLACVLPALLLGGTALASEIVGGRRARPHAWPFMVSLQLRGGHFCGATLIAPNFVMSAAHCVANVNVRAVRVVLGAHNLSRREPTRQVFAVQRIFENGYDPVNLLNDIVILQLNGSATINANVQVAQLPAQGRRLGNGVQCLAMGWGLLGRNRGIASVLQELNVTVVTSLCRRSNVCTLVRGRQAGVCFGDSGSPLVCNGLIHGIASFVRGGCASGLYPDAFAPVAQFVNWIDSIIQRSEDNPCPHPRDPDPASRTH

Cricetulus griseus [2] = assay: Percent inhibition of intraneutrophil elastase in hamster bronchoalveolar lavage 6 hours after oral administration at a dose of 0.73 mg/kg; assay type: organism-based; parameters: dose 0.73 mg/kg; details: Lung
Cricetulus griseus [3] = assay: Percent inhibition of intraneutrophil elastase in hamster bronchoalveolar lavage 6 hours after oral administration at a dose 2.2 mg/kg; assay type: organism-based; parameters: dose 2.2 mg/kg; details: Lung
[4] = Plasma clearance was measured in hamster at the dose of 3 mg/kg by intravenous administration; assay type: ADME, organism-based, Cricetulus griseus; parameters: dose 3 mg/kg, route intravenous; details: chinese hamster, read-out: Clp
[5] = Half life of compound was determined in hamster blood; assay type: ADME, tissue-based, Cricetulus griseus; details: chinese hamster
[6] = Half life of compound was determined in dog blood; assay type: ADME, Canis lupus familiaris
[7] = Bioavailability in hamster was determined; assay type: ADME, organism-based, Cricetulus griseus; details: chinese hamster, in vivo
Cricetulus griseus [8] = assay: Percent inhibition of intraneutrophil elastase in hamster bronchoalveolar lavage at the dose 20 mg/kg 6 hours after oral administration.; assay type: organism-based; parameters: dose 20 mg/kg; details: Lung
[9] = Plasma clearance was measured in hamster at the dose of 10 mg/kg by peroral administration; assay type: ADME, organism-based, Cricetulus griseus; parameters: dose 10 mg/kg, route oral; details: chinese hamster, po, read-out: Clp
[10] = Half life of compound was determined in human blood; assay type: ADME, tissue-based
[11] = Half life of compound was determined in rat blood; assay type: ADME
[12] = Bioavailability in hamster at a dose of 3 mg/kg by […] administration; assay type: ADME, organism-based, Cricetulus griseus; details: chinese hamster, in vivo
Cricetulus griseus [13] = assay: Percent inhibition of intraneutrophil elastase in hamster bronchoalveolar lavage 6 hours after oral administration at a dose of 20 mg/kg; assay type: organism-based; parameters: dose 20 mg/kg; details: Lung
[14] = Bioavailability in hamster at a dose of 3 mg/kg by oral administration; assay type: ADME, organism-based, Cricetulus griseus; details: chinese hamster, in vivo

IC50 (Homo sapiens) [nM] | IC50 (Neutrophil elastase) [nM] | clearance [4] [mL/min/kg] | half-life [5] [h] | half-life [6] [h] | bioavailability [7] [%] | CL/F [9] [mL/min/kg] | half-life [10] [h] | half-life [11] [h] | bioavailability [12] [%] | bioavailability [14] [%] | Compound | inhibition (Cricetulus griseus [1]) [%] | inhibition (Cricetulus griseus [2]) [%] | inhibition (Cricetulus griseus [3]) [%] | inhibition (Cricetulus griseus [8]) [%] | inhibition (Cricetulus griseus [13]) [%]
1800 | 26 | – | – | – | – | – | – | – | – | – | CC(C)[C@H]1C(=O)N(S(C)(=O)=O)[C@H]2CN(C(=O)/C=C/CN3CCCCC3)CC12 (stereo not given in full) | 77 | 33 | – | – | –
– | 242 | 60 | > 6 | > 6 | 70 | 60 | > 6 | 3.5 | – | – | CC(C)[C@H]1C(=O)N(S(C)(=O)=O)[C@H]2CN(C(=O)CCN3CCCCC3)C[C@H]12.Cl | – | – | 20 | 88 | –
– | 120 | 140 | 1.4 | 3.5 | – | 140 | 3.7 | 0.3 | 49 | 49 | CCC[C@H]1C(=O)N(S(C)(=O)=O)[C@H]2CN(C(=O)CCN3CCCCC3)C[C@H]12.Cl | 4 | – | – | – | 75
